According to a melting point compilation (Tetko et al.; mined from patent text by program, amines drawn as free bases though some values may be those of a salt):

| Structure (SMILES) | melting point [°C] |
| --- | --- |
| CC(C)c1nn(-c2ccc(C(F)(F)F)cn2)cc1CO | 119 to 120 |
| CCS(=O)(=O)NC(=O)CCCCC1CCSS1 (stereo not given) | 98 to 100 |
| Cc1c(CC(=O)O)c(=O)oc2cc(C3OC(CO)C(O)C(O)C3O)ccc12 (stereo not given) | 186 to 188 |
| CC(C)(S)CNC(=O)CCC(=O)O | 86 to 87 |
| Cc1nc(Cl)c2cc3c(cc2n1)OCCO3 | 168 to 170 |
| Fc1ccc(-c2[nH]cc(CCCN3CCCCC3)c2-c2ccncc2)cc1 | 195 to 197 |
| Cc1ccc2c(c1)Oc1ccc([N+](=O)[O-])cc1C(=O)N2 | 264 to 266 |
| OCc1cc2ccccc2[nH]1 | 73.5 to 74.4 |
| NCCc1c[nH]c2ccc(NC(N)=O)cc12 | 188 to 190 |
| CCNC(=S)NC1CCCc2ccccc21 (stereo not given) | 120 to 122 |
| O=CCCCCCN1C(=O)c2ccccc2C1=O | 69 to 71 |
| O=S1(=O)N=CN(C2CCCCCCC2)c2ccc(Cl)cc21 | 235 to 237 |
| Cc1sc(C#N)c2c1C(=O)CC(C)(C)C2 | 73 to 75 |
| COc1cccc(C(=O)N2CCCC(=O)c3ccc(Cl)cc3CCC2=O)c1 | 105 to 106 |
| O=[N+]([O-])c1cc(S(=O)(=O)N2CCC(O)C2)sc1Cl (racemic) | 96 |
| CN1CCC(Oc2ccc3ccc(N)nc3n2)CC1 | 174 |
| CC1(C)CCC(C)(C)c2cc(-c3cc(-c4ccc(C(=O)O)cc4)ccc3CCCO)ccc21 | 203 |
| COc1cc(CCNC(=O)C(F)(F)F)ccc1N | 80 to 81 |
| N#CCc1cccc2c(C3CCCCC3)nccc12 | 85.3 to 85.6 |
| O=C1CC2(CN1)CC(=O)c1cc(Cl)ccc12 (stereo not given) | 220 to 222 |
| CC(=NO)C(C)(C)NCC(F)(F)CNC(C)(C)C(CCn1ccnc1[N+](=O)[O-])=NO | 90 to 92 |
| Cc1nc2c3c(ccn2c1C)C(O)C(O)C(c1ccsc1)N3 (stereo not given) | 134 to 138 |

Next, values leading:

| melting point [°C] | Structure (SMILES) |
| --- | --- |
| 227 to 229 | CCCCC(=O)c1cc(C(=O)O)c2cc(Cc3ccc(F)cc3)cnc2c1O |
| 115 to 117 | CC(C)(C)OC(=O)N=C(N)N(CCc1ccc(OCCC2Oc3c(Cl)cc(Cl)cc3N(Cc3cccc(Cl)c3)C2=O)cc1)C(=O)OC(C)(C)C (stereo not given) |
| 86 to 88 | Fc1cccnc1C#CCCc1nc2ccccc2o1 |
| 138 to 140 | CCOC(=O)C1Sc2ccccc2C1=O (stereo not given) |
| 94 to 96 | N#Cc1cccc(CN2C(=O)C3(COc4cc5c(cc43)OCCO5)c3ccccc32)c1 (stereo not given) |
| 192 to 193 | COc1ccc(-c2nnc3c4ccccc4c(Cl)nn23)cc1 |
| 65.5 to 67.5 | CN(C)CCCOC(=O)c1cccc2c(-c3ccccc3)c([N+](=O)[O-])oc12 |
| 144 to 145 | COC(=O)c1ccc(C2CC(=O)NC2(CO)CO)c([N+](=O)[O-])c1 (stereo not given) |
| 83 to 86 | CCOC(=O)CCNC(=O)c1cn2nc(NCCCN3CCC(OC(c4ccccc4)c4ccccc4)CC3)ccc2n1 |
| 116 to 120 | O=C(Nc1ccc(CN2C(=O)C=C(CCO)Sc3ccccc32)cc1)c1ccccc1-c1ccccc1 |
| 205 to 206 | O=C(C=C1SC(Nc2c(Cl)cccc2Cl)=NC1=O)NCc1ccccc1 |
| 133 | c1ccc2c(c1)[nH]c1cccc(OCC3CO3)c12 (stereo not given) |
| 151 to 152 | CC(C)n1nc(-c2c(-c3ccccc3)nn3ccc(OCC(=O)N4CCN(C(=O)N(C)C)CC4)cc23)ccc1=O |
| 92 to 93 | CC(C)C(NC(=O)OCc1nccs1)C(=O)NC(Cc1ccccc1)C(O)C(Cc1ccccc1)NC(=O)C(NC(=O)OCc1nccs1)C(C)C (stereo not given) |
| 143 to 146 | COCCC1(C(=O)N[C@@H](Cc2ccc(N3C(=O)c4ccc(C#N)cc4C3=O)cc2)C(=O)O)CCCC1 |
| 116 | COc1ccc(-c2ccc(NCc3ccccc3)nn2)cc1OC1CCCC1 |
| 262 to 264 | CS(=O)(=O)c1ccc(-c2[nH]c3ccc(Br)cc3c2-c2ccccc2)cc1 |
| 116 to 119 | CC(C)(C)C(=O)C(CC(=O)c1ccc(Cl)cc1)n1cncn1 (stereo not given) |
